Measurements from patent publication US3997403A, “Antibiotic G-418 and the production thereof” (Schering Corporation, priority 1975, dated 1976).

System: E. Histolytica
Test: Oral activity against experimental cecal E. Histolytica infections in rats
Format: in vivo, male Royal Hart rats
Settings: for A.D.I. (average degree of infection): scale 0 to 4, controls averaged 2.2
From the text: Table VII and Table VIII set forth in vivo test results which illustrate the antiprotozoal activity of Antibiotic G-418. The host for the tests were recently weaned male Royal Hart rats (3-4 weeks old) weighing about 50-70 g. The test procedure is a modification of one described by R. J. Schnitzer on pages 355-443 in Experimental Chemotherapy, Vol. 1, Academic Press, New York (1963).
*A.D.I. -- defined as the average degree of infection based upon gross
observations of pathological changes in the cecum and microscopic
observations of the number of amoebae found. These observations are
recorded on a scale of from zero to four, zero representing a
substantially normal cecum. Untreated but infected controls range from
about two to four. In the data set forth the controls averaged 2.2.

`Cc1ncc([N+](=O)[O-])n1CCO` [Flagyl] was tested, and the “Parasitological Cure Negative/Total” value (oral 6.5 mg/kg/day, 1 day) was 0/4, the “A.D.I. (average degree of infection)” value (oral 6.5 mg/kg/day, 1 day) was 1.5 and the “Parasitological Cure Negative/Total” value (oral 6.5 mg/kg/day, 3 days) was 0/3. For the same compound, the “A.D.I. (average degree of infection)” value (oral 6.5 mg/kg/day, 3 days) was 1.7, the “Parasitological Cure Negative/Total” value (oral 6.5 mg/kg/day, 6 days) was 1/4 and the “A.D.I. (average degree of infection)” value (oral 6.5 mg/kg/day, 6 days) was 0.8. The “Parasitological Cure Negative/Total” value (oral 13 mg/kg/day, 6 days) was 2/6, the “A.D.I. (average degree of infection)” value (oral 13 mg/kg/day, 6 days) was 0.8 and the “Parasitological Cure Negative/Total” value (oral 25 mg/kg/day, 6 days) was 1/5. For the same compound, the “A.D.I. (average degree of infection)” value (oral 25 mg/kg/day, 6 days) was 0.8.
